Experimental data as given in patent publication US12227501B2, “3-amino-2-[2-(acylamino)pyridin-4-yl]-1,5,6,7-tetrahydro-4h-pyrrolo[3,2-c]pyridin-4-one as CSNK1 inhibitors” (Bayer Aktiengesellschaft, priority 2019, dated 2025).
Several values for one entry are separate records, joined by “and”; a condition that tells them apart may be missing. Equal entries are not always repeated. Structures can show the parent of a compound that is named as a salt. Where two headings read alike, the source gives them in different places.

What was measured:
Assay type in all cases: biochemical
human CSNK1D = human CSNK1D (Homo sapiens (Human), UniProt P48730); assay: CSNK1D Assay (ADP-Glo, 1 μM ATP); conditions: read-out: CSNK1D IC50 [mol/l] (median)
Procedure, shortened: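 Activity is read as ADP produced, by ADP-Glo luminescence after 1 h steps at 22 °C. The reaction uses 1 μM ATP, a biotinylated peptide and insect-cell-expressed GST–CSNK1D (about 0.5 ng/μL) in pH 7.5 HEPES buffer, with 15 min compound–enzyme preincubation.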

[1] = target: wild-type Epidermal Growth Factor Receptor (EGFR) (Homo sapiens (Human), UniProt P00533); assay: WT-EGFR Kinase Assay (TR-FRET, 2 mM ATP)
human CSNK1A1 [2] = target: T1, human CSNK1A1 (Homo sapiens (Human), UniProt P48729); assay: CSNK1A1 High ATP Assay (ADP-Glo, 1 mM ATP); conditions: read-out: CSNK1A1 high ATP assay IC50 [mol/l] (median)
Procedure, shortened: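 Kinase activity taken as ADP generated, quantified by ADP-Glo luminescence after 1 h ATP depletion and 1 h detection at 22 °C. Enzyme is GST–full-length human CSNK1A1 (insect cell-expressed), pre-bound to compound for 15 min, with phosphopeptide substrate and 1 mM ATP.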

human CSNK1A1 [3] = target: T1, human CSNK1A1; assay: CSNK1A1 Assay 2 (ADP-Glo, 1 μM ATP); conditions: substrate biotin-Ahx-KRRRAL-pS-VASLPGL, read-out: CSNK1A1 Assay 2 IC50 [mol/l] (median)
Procedure, shortened: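 Full-length human CSNK1A1 as an N-terminal GST fusion (baculovirus/insect cells) with biotinylated peptide substrate biotin-Ahx-KRRRAL-pS-VASLPGL and 1 μM ATP, in HEPES pH 7.5 buffer. Compounds were pre-incubated with enzyme (~0.0375 ng/μL) for 15 min at 22 °C. Generated ADP was read by ADP-Glo luminescence as the activity measure.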

[4] = EGFR Wildtyp- 2 mM ATP IC50 [mol/l] (median)
[5] = read-out: EGFR Wildtyp- 2 mM ATP IC50 [mol/l] (median)

Chain of human CSNK1D (P48730 whole entry): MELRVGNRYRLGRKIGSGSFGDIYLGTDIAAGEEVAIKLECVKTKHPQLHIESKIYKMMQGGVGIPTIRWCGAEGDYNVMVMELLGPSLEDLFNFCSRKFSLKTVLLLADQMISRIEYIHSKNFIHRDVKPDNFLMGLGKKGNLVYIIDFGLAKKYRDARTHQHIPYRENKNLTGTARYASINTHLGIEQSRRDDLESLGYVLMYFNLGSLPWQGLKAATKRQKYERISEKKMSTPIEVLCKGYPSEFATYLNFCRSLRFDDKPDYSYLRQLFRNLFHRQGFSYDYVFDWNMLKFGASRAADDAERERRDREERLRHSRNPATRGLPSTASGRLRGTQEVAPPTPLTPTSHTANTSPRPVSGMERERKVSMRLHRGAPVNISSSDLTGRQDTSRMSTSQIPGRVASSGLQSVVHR
Chain of wild-type Epidermal Growth Factor Receptor (EGFR) (P00533 669-1210): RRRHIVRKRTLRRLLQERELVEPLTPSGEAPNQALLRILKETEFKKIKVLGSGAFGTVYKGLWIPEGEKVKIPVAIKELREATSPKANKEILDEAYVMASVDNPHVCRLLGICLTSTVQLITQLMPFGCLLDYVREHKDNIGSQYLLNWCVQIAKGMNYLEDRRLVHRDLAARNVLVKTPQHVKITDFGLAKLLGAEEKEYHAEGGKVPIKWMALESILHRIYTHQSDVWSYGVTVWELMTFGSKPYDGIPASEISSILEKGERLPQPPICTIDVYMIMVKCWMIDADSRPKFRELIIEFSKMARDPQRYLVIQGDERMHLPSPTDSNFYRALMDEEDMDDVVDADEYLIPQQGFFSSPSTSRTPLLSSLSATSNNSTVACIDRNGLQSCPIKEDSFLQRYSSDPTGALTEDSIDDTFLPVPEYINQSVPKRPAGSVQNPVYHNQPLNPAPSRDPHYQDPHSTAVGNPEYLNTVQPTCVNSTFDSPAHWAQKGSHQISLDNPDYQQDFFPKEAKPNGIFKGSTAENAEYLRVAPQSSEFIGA
T1 sequence (P48729 whole entry): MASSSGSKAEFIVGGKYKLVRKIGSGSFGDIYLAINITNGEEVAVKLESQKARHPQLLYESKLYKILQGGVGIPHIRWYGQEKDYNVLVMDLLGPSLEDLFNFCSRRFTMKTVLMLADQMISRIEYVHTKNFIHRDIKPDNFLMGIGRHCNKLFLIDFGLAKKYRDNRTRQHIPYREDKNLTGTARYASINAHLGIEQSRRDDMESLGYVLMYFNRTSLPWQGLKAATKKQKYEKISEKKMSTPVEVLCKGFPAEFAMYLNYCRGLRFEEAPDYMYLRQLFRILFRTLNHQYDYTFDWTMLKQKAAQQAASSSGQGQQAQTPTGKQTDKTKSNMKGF

| SMILES | IC50 (human CSNK1D) [nM] | IC50 [1, 4] [nM] | IC50 (human CSNK1A1 [2]) | IC50 (human CSNK1A1 [3]) [nM] | IC50 [1, 5] [nM] |
| --- | --- | --- | --- | --- | --- |
| CCN1CCc2[nH]c(-c3ccnc(NC(=O)C(C)c4ccc(F)cc4)c3)c(Nc3ccccc3)c2C1=O (single isomer, unassigned) [Example 25, N-[4-(3-anilino-5-ethyl-4-oxo-4,5,6,7-tetrahydro-1H-pyrrolo[3,2-c]pyridin-2-yl)pyridin-2-yl]-2-(4-fluorophenyl)propanamide] | 88.6 | > 20000 | 12700 nM and > 20000 nM | 55.4 | – |
| O=C(Cc1ccc(F)cc1)Nc1cc(-c2[nH]c3c(c2Nc2ccccc2)C(=O)NC2(CC2)C3)ccn1 [Example 146, N-[4-(3′-anilino-4′-oxo-1′,4′,5′,7′-tetrahydrospiro[cyclopropane-1,6′-pyrrolo[3,2-c]pyridin]-2′-yl)pyridin-2-yl]-2-(4-fluorophenyl)acetamide] | 6.28 | – | 5.04 nM | 1.38 | 667 |
| CC1Cc2[nH]c(-c3ccnc(NC(=O)C(CC(F)F)c4ccc(F)cc4)c3)c(Nc3ccccc3F)c2C(=O)N1C (single isomer, unassigned; (-)) [Example 104, (−)-4,4-difluoro-N-{4-[3-(2-fluoroanilino)-5,6-dimethyl-4-oxo-4,5,6,7-tetrahydro-1H-pyrrolo[3,2-c]pyridin-2-yl]pyridin-2-yl}-2-(4-fluorophenyl)butanamide] | 60.5 | – | 4490 nM | 67.9 | > 20000 |
| CC(C(=O)Nc1cc(-c2[nH]c3c(c2Nc2ccccc2Cl)C(=O)NCC3)ccn1)c1ccc(F)cc1 (single isomer, unassigned) [Example 15, N-{4-[3-(2-chloroanilino)-4-oxo-4,5,6,7-tetrahydro-1H-pyrrolo[3,2-c]pyridin-2-yl]pyridin-2-yl}-2-(4-fluorophenyl)propanamide] | 38.6 | > 20000 | 10700 nM and > 5710 nM | 42.5 | – |
| CC1Cc2[nH]c(-c3ccnc(NC(=O)C(CC(F)F)c4ccc(F)cc4)c3)c(Nc3ccccc3F)c2C(=O)N1C (single isomer, unassigned; (+)) [Example 105, (+)-4,4-difluoro-N-{4-[3-(2-fluoroanilino)-5,6-dimethyl-4-oxo-4,5,6,7-tetrahydro-1H-pyrrolo[3,2-c]pyridin-2-yl]pyridin-2-yl}-2-(4-fluorophenyl)butanamide] | 5.45 | – | 94.5 nM | 4.06 | > 20000 |
| CC1(C)Cc2[nH]c(-c3ccnc(NC(=O)C(CN)c4ccc(F)cc4)c3)c(Nc3ccccc3)c2C(=O)N1 (racemic) [Example 139, 3-amino-N-[4-(3-anilino-6,6-dimethyl-4-oxo-4,5,6,7-tetrahydro-1H-pyrrolo[3,2-c]pyridin-2-yl)pyridin-2-yl]-2-(4-fluorophenyl)propanamide-hydrogen chloride salt (Racemate)] | 7.73 | 681 | 41.4 nM | 3.21 | – |
| CN1CCc2[nH]c(-c3ccnc(NC(=O)Cc4ccc(C(=O)N5CCNCC5)cc4)c3)c(Nc3ccccc3)c2C1=O [Example 153, N-[4-(3-anilino-5-methyl-4-oxo-4,5,6,7-tetrahydro-1H-pyrrolo[3,2-c]pyridin-2-yl)pyridin-2-yl]-2-[4-(piperazine-1-carbonyl)phenyl]acetamide] | 9.28 | – | 73.9 nM | 1.96 | 287 |
| CC1Cc2[nH]c(-c3ccnc(NC(=O)Cc4ccc(F)cc4)c3)c(Nc3ccccc3F)c2C(=O)N1C (single isomer, unassigned; (+)) [Example 101, (+)-N-{4-[3-(2-fluoroanilino)-5,6-dimethyl-4-oxo-4,5,6,7-tetrahydro-1H-pyrrolo[3,2-c]pyridin-2-yl]pyridin-2-yl}-2-(4-fluorophenyl)acetamide] | 7.42 | > 20000 | 258 nM | 3.74 | – |
| CN1CCc2[nH]c(-c3ccnc(NC(=O)C(CCN4CCOCC4)c4ccccc4)c3)c(Nc3ccccc3)c2C1=O (stereo not shown) [Example 30, N-[4-(3-anilino-5-methyl-4-oxo-4,5,6,7-tetrahydro-1H-pyrrolo[3,2-c]pyridin-2-yl)pyridin-2-yl]-4-(morpholin-4-yl)-2-phenylbutanamide] | 25.9 | – | 485 nM | 8.01 | > 20000 |
| CC1(C)Cc2[nH]c(-c3ccnc(NC(=O)C(CNC(=O)OC(C)(C)C)c4ccc(F)cc4)c3)c(Nc3ccccc3)c2C(=O)N1 (racemic) [Example 138, tert-butyl [3-{[4-(3-anilino-6,6-dimethyl-4-oxo-4,5,6,7-tetrahydro-1H-pyrrolo[3,2-c]pyridin-2-yl)pyridin-2-yl]amino}-2-(4-fluorophenyl)-3-oxopropyl]carbamate (Racemate)] | 22.4 | 11100 | 430 nM | 16.6 | – |
| CN1CCc2[nH]c(-c3ccnc(NC(=O)C(CC(F)F)c4ccc(F)cc4)c3)c(Nc3ccccc3)c2C1=O (single isomer, unassigned; (+)) [Example 63, (+)-N-[4-(3-anilino-5-methyl-4-oxo-4,5,6,7-tetrahydro-1H-pyrrolo[3,2-c]pyridin-2-yl)pyridin-2-yl]-4,4-difluoro-2-(4-fluorophenyl)butanamide] | 4 | 6680 | 12.1 nM | 2.12 | – |
| CC1(C)Cc2[nH]c(-c3ccnc(NC(=O)C(CC(F)F)c4ccc(F)cc4)c3)c(Nc3cccc(F)c3)c2C(=O)N1 (single isomer, unassigned; enantiomer 1) [Example 120, 4,4-difluoro-N-{4-[3-(3-fluoroanilino)-6,6-dimethyl-4-oxo-4,5,6,7-tetrahydro-1H-pyrrolo[3,2-c]pyridin-2-yl]pyridin-2-yl}-2-(4-fluorophenyl)butanamide (Enantiomer 1)] | 11 | > 20000 | 477 nM | 9.64 | – |
| CN1CCc2[nH]c(-c3ccnc(NC(=O)Cc4ccc(F)c(F)c4)c3)c(Nc3ccccc3)c2C1=O [Example 83, N-[4-(3-anilino-5-methyl-4-oxo-4,5,6,7-tetrahydro-1H-pyrrolo[3,2-c]pyridin-2-yl)pyridin-2-yl]-2-(3,4-difluorophenyl)acetamide] | 7.3 | – | 61.4 nM | 3.03 | 2920 |
| CC(C(=O)Nc1cc(-c2[nH]c3c(c2Nc2ccccc2F)C(=O)N(C)CC3)ccn1)c1ccc(F)cc1 (single isomer, unassigned) [Example 42, N-{4-[3-(2-fluoroanilino)-5-methyl-4-oxo-4,5,6,7-tetrahydro-1H-pyrrolo[3,2-c]pyridin-2-yl]pyridin-2-yl}-2-(4-fluorophenyl)propanamide] | 4.92 | – | 57.2 nM | 2.4 | > 20000 |
| CN1CCc2[nH]c(-c3ccnc(NC(=O)C(CC(F)F)c4ccc(F)cc4)c3)c(Nc3ccccc3)c2C1=O (racemic) [Example 61, N-[4-(3-anilino-5-methyl-4-oxo-4,5,6,7-tetrahydro-1H-pyrrolo[3,2-c]pyridin-2-yl)pyridin-2-yl]-4,4-difluoro-2-(4-fluorophenyl)butanamide] | 7.68 | 8020 | 21.9 nM | 5.11 | – |
| CC1(C)Cc2[nH]c(-c3ccnc(NC(=O)Cc4ccc(F)cc4)c3)c(Nc3cccc(F)c3Cl)c2C(=O)N1 [Example 112, N-{4-[3-(2-chloro-3-fluoroanilino)-6,6-dimethyl-4-oxo-4,5,6,7-tetrahydro-1H-pyrrolo[3,2-c]pyridin-2-yl]pyridin-2-yl}-2-(4-fluorophenyl)acetamide] | 8.41 | – | 167 nM | 6.69 | 3430 |
| Cc1ccccc1Nc1c(-c2ccnc(NC(=O)C(CC(F)F)c3ccc(F)cc3)c2)[nH]c2c1C(=O)NC(C)(C)C2 (racemic) [Example 135, N-{4-[6,6-dimethyl-3-(2-methylanilino)-4-oxo-4,5,6,7-tetrahydro-1H-pyrrolo[3,2-c]pyridin-2-yl]pyridin-2-yl}-4,4-difluoro-2-(4-fluorophenyl)butanamide (Racemate)] | 19.9 | > 20000 | 365 nM | 25.8 | – |
| CN(C)CCCC(C(=O)Nc1cc(-c2[nH]c3c(c2Nc2ccccc2)C(=O)N(C)CC3)ccn1)c1ccccc1 (single isomer, unassigned; (-)) [Example 59, (−)-N-[4-(3-anilino-5-methyl-4-oxo-4,5,6,7-tetrahydro-1H-pyrrolo[3,2-c]pyridin-2-yl)pyridin-2-yl]-5-(dimethylamino)-2-phenylpentanamide] | 86.2 | 16300 | 7300 nM | 94.3 | – |
| CN1CCc2[nH]c(-c3ccnc(NC(=O)Cc4ccncc4)c3)c(Nc3ccccc3)c2C1=O [Example 64, N-[4-(3-anilino-5-methyl-4-oxo-4,5,6,7-tetrahydro-1H-pyrrolo[3,2-c]pyridin-2-yl)pyridin-2-yl]-2-(pyridin-4-yl)acetamide] | 5.51 | – | 31 nM | 2.65 | 1200 |
